Results as given in patent publication US20230115350A1 (Cedilla Therapeutics, Inc., priority 2021, published 2023).

Columns and labels:
[1] = biological target: TEAD1 protein (YAP Binding Domain) (Homo sapiens, UniProt P28347); test: TEAD1 lipid pocket compound displacement assay (TR-FRET, Cy5-probe); conditions: 60 minutes incubation at room temperature; TR-FRET 665 nm/620 nm; read-out: CDA IC50
Method: Compound Displacement Assay.
A TEAD1 lipid pocket displacement assay was carried out according to the following protocol. Purified His-tagged TEAD1 protein (YAP Binding Domain) was pre-mixed with a Cy5-probe (Cy5-conjugated to a small molecule that binds in the TEAD1 lipid pocket) and Terbium-labeled anti-His antibody (Cisbio Cat 61HI2TLB). The binding of the Cy5-probe to anti-His-Tb/His-tag TEAD1 complex yielded a TR-FRET signal. […] After 60 minutes incubation at room temperature of compounds with the His-TEAD1/anti-His-Tb/Cy5-probe complex, the plate was read on a plate reader (BMG ClarioStar Cat 430-1300) using TR-FRET mode with wavelengths of 665 nm/620 nm. The potency of compounds as TEAD1 lipid pocket binders was determined by IC50 value generated using a non-linear 4 parameter curve fit.

[2] = test system: NCI-H226; test: 72H TEAD Proliferation Assay (Cell Titer-Glo 2.0); format: cell-based; conditions: Homo sapiens, NCI-H226, 72 h, CTG 2.0, cell line not given
Method: The effect of TEAD inhibition on cell proliferation was assayed using Cell Titer Glo (CTG) 2.0 to measure response in mesothelioma cell lines NCI-H226 (ATCC, #CRL-5826) and NCI-H28 (ATCC, #CRL-5820).
The 72H TEAD Proliferation assay utilizes Cell Titer-Glo 2.0 (Promega, #G9243) to measure the proliferation of cells in the presence or absence of compound. Cell Titer-Glo 2.0 determines the amount of viable cells by quantifying ATP (an indication of metabolically active cells). It utilizes the conversion of Luciferin to Oxyluciferin and a luminescent signal with the use of ATP to report the quantity of viable cells in culture. Within cells that are continually growing, ATP is being synthesized to meet their metabolic demands, meanwhile the opposite is true for cells that are dying or slowing down their proliferation and either no longer using ATP or are using less, respectively. The NF2-deficient NCI-H226 has been genetically validated as a cell line that is sensitive to TEAD inhibition. The NF2-wild type NCI-H28 has been genetically validated as a cell line that is not sensitive to TEAD inhibition and grows independently of TEAD activity.
Compounds were screened against the responsive NCI-H226 cell line to assess the compounds' ability to inhibit TEAD and cell growth. Compounds were also screened against the non-responsive NCI-H28 cell line to ascertain whether the inhibition of cell growth was due to inhibition of the target TEAD or whether the inhibition was due to off-target cytotoxicity.
1) Assay ready plates (ARPs) were prepared by Echo acoustic liquid handler. For each compound, duplicate of 10-point half-log dilution series were dispensed in a 384-well microplate (Corning 3571).
5) NCI-H226 or NCI-H28 cells were harvested from culture in Assay Medium 1 and the multidrop Combi reagent dispenser was used to seed cells at 500 cells per 50 ul in each well of the ARPs and one Corning 3571 plate without compounds for Time 0 (TO) readout.
6) The TO plate was incubated for 2 hours at 37° C. with 5% CO2 to allow cells to settle, then the CTG Assay was performed.
7) All ARPs were incubated for 72 hours at 37° C. with 5% CO2, then the CTG Assay was performed for Time 72H (T72) readout.
8) CTG Assay: Bravo liquid handler (Agilent) was used to add 25 ul of CTG 2.0 to all columns of the plate except for Column 24, which was used to subtract out the background. After CTG addition, plates were placed on shaker at 800 RPM for 15 minutes at room temperature and kept in the dark. Luminescence was measured using EnVision multilabel plate reader with ultra-sensitive detection module.
9) Data Analysis: First background luminescence (no CTG wells) was subtracted from luminescence reading of all wells, then TO luminescence was subtracted from T72 luminescence. To compare anti-proliferative effect of compounds, GI50 was obtained by fitting dose response curves with nonlinear regression curve fit.

Sequence of TEAD1 protein (YAP Binding Domain) (P28347 209-426 limits assumed): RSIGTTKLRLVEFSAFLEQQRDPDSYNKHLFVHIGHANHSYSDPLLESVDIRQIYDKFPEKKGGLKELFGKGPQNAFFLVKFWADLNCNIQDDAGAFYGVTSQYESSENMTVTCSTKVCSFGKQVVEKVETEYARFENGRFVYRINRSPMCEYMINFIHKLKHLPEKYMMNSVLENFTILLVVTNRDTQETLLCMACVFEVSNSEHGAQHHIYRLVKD

| SMILES | IC50 [1] [µM] | GI50 [2] [µM] |
| --- | --- | --- |
| C=CC(=O)Nc1ccc2c(c1)OC(C)(c1cccc(C(F)(F)F)c1)O2 (centres unmarked) [147*, N-(2-methyl-2-(3-(trifluoromethyl)phenyl)benzo[d][1,3]dioxol-5-yl)acrylamide] | ≤ 0.25 | 0.25 to 1 |
| C=CC(=O)Nc1ccc(CCc2cccc(F)c2)c(F)c1 [Compound 1, N-(3-fluoro-4-(3-fluorophenethyl)phenyl)acrylamide] | ≤ 0.25 | 1 to 3 |
| C=CC(=O)Nc1ccc(OCc2cccc(F)c2)c(C2CCCCC2)c1 [Compound 3, N-(3-cyclohexyl-4-((3-fluorobenzyl)oxy)phenyl)acrylamide] | 0.5 to 2 | > 3 |
| C=CC(=O)Nc1ccc(OCc2cccc(F)c2)c(C(F)(F)F)c1 [Compound 9, N-(4-((3-fluorobenzyl)oxy)-3-(trifluoromethyl)phenyl)acrylamide] | ≤ 0.25 | > 3 |
| C=CC(=O)Nc1ccc(OCC2CCC(F)(F)CC2)c2ccncc12 [Compound 19, N-(5-((4,4-difluorocyclohexyl)methoxy)isoquinolin-8-yl)acrylamide] | > 2 | > 3 |
| C=CC(=O)Nc1ccc(OCC2CCC(F)(F)CC2)cc1C#N [Compound 20, N-(2-cyano-4-((4,4-difluorocyclohexyl)methoxy)phenyl)acrylamide] | ≤ 0.25 | 0.25 to 1 |
| C=CC(=O)Nc1ccc(OCC2CCC(F)(F)CC2)c2ocnc12 [Compound 21, N-(7-((4,4-difluorocyclohexyl)methoxy)benzo[d]oxazol-4-yl)acrylamide] | ≤ 0.25 | ≤ 0.25 |
| C=CC(=O)Nc1ccc(OCC2CCC(F)(F)CC2)c2[nH]cnc12 [Compound 22, N-(7-((4,4-difluorocyclohexyl)methoxy)-1H-benzo[d]imidazol-4-yl)acrylamide] | 0.5 to 2 | 0.25 to 1 |
| C=CC(=O)Nc1ccc(OCC2CCC(F)(F)CC2)c2ccnn12 [Compound 23, N-(4-((4,4-difluorocyclohexyl)methoxy)pyrazolo[1,5-a]pyridin-7-yl)acrylamide] | ≤ 0.25 | 1 to 3 |
| C=CC(=O)Nc1ccc(OCC2CCCC(F)(F)C2)c(F)c1 (centres unmarked) [Compound 24, N-(4-((3,3-difluorocyclohexyl)methoxy)-3-fluorophenyl)acrylamide] | ≤ 0.25 | ≤ 0.25 |
| C=CC(=O)Nc1ccc(OCc2cccc(CC)c2)c(F)c1 [Compound 26, N-(4-((3-ethylbenzyl)oxy)-3-fluorophenyl)acrylamide] | ≤ 0.25 | 0.25 to 1 |
| C=CC(=O)Nc1ccc(/C=C/c2cccc(F)c2)c(F)c1 [Compound 27, (E)-N-(3-fluoro-4-(3-fluorostyryl)phenyl)acrylamide] | 0.5 to 2 | 1 to 3 |
| C=CC(=O)Nc1ccc(COc2cccc(F)c2)c(F)c1 [Compound 28, N-(3-fluoro-4-((3-fluorophenoxy)methyl)phenyl)acrylamide] | 0.25 to 0.5 | 0.25 to 1 |
| C=CC(=O)Nc1ccc(COc2cccc(C(F)(F)F)c2)c(F)c1 [Compound 31, N-(3-fluoro-4-((3-(trifluoromethyl)phenoxy)methyl)phenyl)acrylamide] | ≤ 0.25 | ≤ 0.25 |
| C=CC(=O)Nc1ccc(OCc2cccc(C(F)(F)F)c2)c(C#N)c1 [Compound 38, N-(3-cyano-4-((3-(trifluoromethyl)benzyl)oxy)phenyl)acrylamide] | 0.5 to 2 | 1 to 3 |
| C=CC(=O)Nc1ccc(OCc2cccc(F)c2Cl)c(C#N)c1 [Compound 39, N-(4-((2-chloro-3-fluorobenzyl)oxy)-3-cyanophenyl)acrylamide] | 0.25 to 0.5 | ≤ 0.25 |
| C=CC(=O)Nc1ccc(OCc2ccc(F)c(F)c2)c(C#N)c1 [Compound 40, N-(3-cyano-4-((3,4-difluorobenzyl)oxy)phenyl)acrylamide] | 0.5 to 2 | 1 to 3 |
| C=CC(=O)Nc1ccc(OCc2cncc(C(F)(F)F)c2)c(C#N)c1 [Compound 41, N-(3-cyano-4-((5-(trifluoromethyl)pyridin-3-yl)methoxy)phenyl)acrylamide] | > 2 | > 3 |

| SMILES | IC50 [1] [µM] | GI50 [2] [µM] |
| --- | --- | --- |
| C=CC(=O)Nc1ccc(OCc2cncc(C(F)(F)F)c2)cc1C#N [Compound 42, N-(2-cyano-4-((5-(trifluoromethyl)pyridin-3-yl)methoxy)phenyl)acrylamide] | > 2 | 0.25 to 1 |
| C=CC(=O)Nc1ccc(OCc2cccc(F)c2)cc1F [Compound 45, N-(2-fluoro-4-((3-fluorobenzyl)oxy)phenyl)acrylamide] |  | > 3 |
| C=CC(=O)Nc1ccc(OCC2CCC(F)(F)CC2)c2ccccc12 [Compound 49, N-(4-((4,4-difluorocyclohexyl)methoxy)naphthalen-1-yl)acrylamide] | ≤ 0.25 | ≤ 0.25 |
| C=CC(=O)Nc1ccc(OCc2cccc(C#N)c2)c(F)c1 [Compound 92, N-(4-((3-cyanobenzyl)oxy)-3-fluorophenyl)acrylamide] | 0.5 to 2 |  |
| C=CC(=O)Nc1ccc(OCc2cccc(C)c2)c(F)c1 [Compound 93, N-(3-fluoro-4-((3-methylbenzyl)oxy)phenyl)acrylamide] | ≤ 0.25 |  |
| C=CC(=O)Nc1ccc(OCCCC(F)(F)F)c(F)c1 [Compound 94, N-(3-fluoro-4-(4,4,4-trifluorobutoxy)phenyl)acrylamide] | 0.5 to 2 |  |
| C=CC(=O)Nc1ccc(OCc2cccc(F)c2F)c(F)c1 [Compound 95, N-(4-((2,3-difluorobenzyl)oxy)-3-fluorophenyl)acrylamide] | 0.25 to 0.5 |  |
| C=CC(=O)Nc1ccc(OCc2cc(F)cc(F)c2)c(F)c1 [Compound 97, N-(4-((3,5-difluorobenzyl)oxy)-3-fluorophenyl)acrylamide] | 0.25 to 0.5 |  |
| C=CC(=O)Nc1ccc(Oc2ccc(C3CCCCC3)cc2)c(F)c1 [Compound 102, N-(4-(4-cyclohexylphenoxy)-3-fluorophenyl)acrylamide] | ≤ 0.25 |  |
| C=CC(=O)Nc1ccc(C(=O)Nc2cccc(F)c2)c(F)c1 [Compound 118, 4-acrylamido-2-fluoro-N-(3-fluorophenyl)benzamide] | > 2 |  |
| C=CC(=O)Nc1ccc(C2CCc3ccccc3C2)c(F)c1 (centres unmarked) [Compound 119, N-(3-fluoro-4-(1,2,3,4-tetrahydronaphthalen-2-yl)phenyl)acrylamide] | 0.5 to 2 |  |
| C=CC(=O)Nc1ccc(OC(C)c2ccccc2Cl)c(F)c1 (centres unmarked) [Compound 123, N-(4-(1-(2-chlorophenyl)ethoxy)-3-fluorophenyl)acrylamide] | 0.5 to 2 |  |
| C=CC(=O)Nc1ccc(OCc2cccc(F)c2)c(F)n1 [Compound 127, N-(6-fluoro-5-((3-fluorobenzyl)oxy)pyridin-2-yl)acrylamide] | ≤ 0.25 |  |
| C=CC(=O)Nc1cc(F)c(OCc2cccc(F)c2)cn1 [Compound 128, N-(4-fluoro-5-((3-fluorobenzyl)oxy)pyridin-2-yl)acrylamide] | ≤ 0.25 |  |
| C=CC(=O)Nc1ccc(OCc2cccc(F)c2)c(C#N)c1 [Compound 130, N-(3-cyano-4-((3-fluorobenzyl)oxy)phenyl)acrylamide] | 0.5 to 2 |  |
| C=CC(=O)Nc1ccc(C2COc3ccccc3C2=O)c(F)c1 (centres unmarked) [Compound 131, N-(3-fluoro-4-(4-oxochroman-3-yl)phenyl)acrylamide] | 0.5 to 2 |  |
| C=CC(=O)Nc1cc2nc(CCCC(F)(F)F)oc2cc1F [Compound 133, N-(6-fluoro-2-(4,4,4-trifluorobutyl)benzo[d]oxazol-5-yl)acrylamide] |  | ≤ 0.25 |
| C=CC(=O)Nc1cc2nc(CCc3cccc(F)c3)oc2cc1F [Compound 139, N-(6-fluoro-2-(3-fluorophenethyl)benzo[d]oxazol-5-yl)acrylamide] | 0.25 to 0.5 |  |
